Several values for one entry are separate records, joined by “and”; a condition that tells them apart may be missing. Identical values can stand only once. Like-named read-outs stand apart in the source and are kept apart here.
Experiments:
Leptosphaeria nodorum = Leptosphaeria nodorum test (wheat)/preventive; format: in vivo; conditions: for pest or weed control at 10 ppm / pest or weed control at 40 ppm / pest or weed control at 80 ppm: Parastagonospora nodorum, 192 h, read-out: Efficacy in % found; for pest or weed control at 40 ppm: 40 ppm a.i.
Puccinia triticina = assay: Puccinia triticina-test (wheat)/preventive; format: in vivo; conditions: preventive, evaluated 8 days after inoculation; for pest or weed control at 20 ppm: application rate 20 ppm a.i.; for Efficacy in % found: application rate 400 ppm a.i.
Phytophthora infestans = assay: whole plant or invertebrate; format: in vivo
Venturia inaequalis = assay: Venturia test (apples)/preventive; conditions: for pest or weed control at 0.25 ppm / pest or weed control at 0.5 ppm: Venturia inaequalis, 240 h; for pest or weed control at 0.25 ppm: 0.25 ppm a.i.
Method: After the spray coating has dried on, the plants are inoculated with an aqueous conidia suspension of the causal agent of apple scab (Venturia inaequalis) and then remain for 1 day in an incubation cabinet at approximately 20° C. and a relative atmospheric humidity of 100%.
The plants are then placed in a greenhouse at approximately 21° C. and a relative atmospheric humidity of approximately 90%.
The test is evaluated 10 days after the inoculation.

Septoria tritici = assay: Septoria tritici-test (wheat)/preventive; format: in vivo; conditions: preventive, evaluated 21 days after inoculation
Sphaerotheca fuliginea = assay: Sphaerotheca test (cucumbers)/preventive; format: in vivo; conditions: for pest or weed control at 0.25 ppm / pest or weed control at 0.5 ppm: Podosphaera fuliginea, 168 h, read-out: Efficacy in % found; for pest or weed control at 0.25 ppm: 0.25 ppm a.i.; for Efficacy in % found: Table 4d
Alternaria solani = assay: Alternaria test (tomatoes)/preventive; format: in vivo
[1] = test system: Fusarium nivale (var. majus); assay: Fusarium nivale (var. majus)-test (wheat)/preventive
Method: After the spray coating has been dried, the plants are slightly injured by using a sandblast and afterwards they are sprayed with a conidia suspension of Fusarium nivale (var. majus).
The plants are placed in the greenhouse under a translucent incubation cabinet at a temperature of approximately 10° C. and a relative atmospheric humidity of approximately 100%.
The test is evaluated 5 days after the inoculation.

[2] = test system: Blumeria graminis f.sp. hordei; assay: Blumeria test (barley)/preventive; format: in vivo; conditions: for pest or weed control at 10 ppm / pest or weed control at 20 ppm: Blumeria graminis, 168 h, read-out: Efficacy in % found
Pyrenophora teres = assay: Pyrenophora teres-test (barley)/preventive; format: in vivo; conditions: preventive, evaluated 8 days after inoculation
Botrytis cinerea = assay: Botrytis test (beans)/preventive
Method: After the spray coating has dried on, 2 small pieces of agar covered with growth of Botrytis cinerea are placed on each leaf. The inoculated plants are placed in a darkened chamber at 20° C. and a relative atmospheric humidity of 100%. 2 days after the inoculation, the size of the lesions on the leaves is evaluated.

[3] = application rate 10 ppm, wheat, preventive, evaluated 8 days after inoculation
[4] = Phytophthora infestans, 72 h, read-out: Efficacy in % found
[5] = read-out: Efficacy in % found, Table 2b
[6] = Zymoseptoria tritici, 504 h, application rate 10 ppm a.i., read-out: Efficacy in % found
[7] = Alternaria solani, 72 h, Table 3a, 0.5 ppm a.i., read-out: Efficacy in % found
[8] = Alternaria solani, 72 h, Table 3b, read-out: Efficacy in % found
[9] = Alternaria solani, 72 h, Table 3b, 0.5 ppm, read-out: Efficacy in % found
[10] = Puccinia triticina, 192 h, read-out: Efficacy in % found
[11] = Zymoseptoria tritici, 504 h, application rate 20 ppm a.i., read-out: Efficacy in % found

Compound: Cn1nc(C(F)F)c(C(=O)N(Cc2c(C(F)(F)F)ccc(Cl)c2F)C2CC2)c1F [A18, N-[3-chloro-2-fluoro-6-(trifluoromethyl)benzyl]-N-cyclopropyl-3-(difluoromethyl)-5-fluoro-1-methyl-1H-pyrazole-4-carboxamide]
- pest or weed control at 10 ppm (Leptosphaeria nodorum; [3]): 0%
- pest or weed control at 10 ppm (Puccinia triticina; Puccinia triticina, 192 h, application rate 10 ppm a.i., read-out: Efficacy in % found): 33%
- pest or weed control at 0.25 ppm (Phytophthora infestans; [4]): 0%
- pest or weed control at 100 ppm (Phytophthora infestans; [4]): 32%
- pest or weed control at 0.25 ppm (Venturia inaequalis; [5]): 0%
- pest or weed control at 10 ppm (Septoria tritici; [6]): 89%
- pest or weed control at 0.25 ppm (Sphaerotheca fuliginea; Table 4c): 13%
- pest or weed control at 0.5 ppm (Alternaria solani; [7]): 30%
- pest or weed control at 0.25 ppm (Alternaria solani; [8]): 30%
- pest or weed control at 0.5 ppm (Alternaria solani; [9]): 43%
- pest or weed control at 10 ppm ([1]; Microdochium nivale, in Triticum aestivum, 120 h, read-out: Efficacy in % found, Table 8b, 10 ppm a.i.): 43%
- pest or weed control at 10 ppm ([2]; Table 6e, 10 ppm a.i.): 29%
- pest or weed control at 10 ppm ([2]; Table 6d, 10 ppm): 56%

Compound: Cc1ccc(C(C)NC(=O)[C@@H](NC(=O)OC(C)C)C(C)C)cc1 (stereo partly drawn) [B9.4, iprovalicarb]
- Efficacy in % found (Pyrenophora teres; application rate 100 ppm a.i.): 33%
- Efficacy in % found (Phytophthora infestans; Table 1a, 5 ppm a.i.): 48%
- Efficacy in % found ([2]; Table 6e, 100 ppm a.i.): 0%

Compound: OC(Cc1ccccc1Cl)(Cn1nc[nH]c1=S)C1(Cl)CC1 (stereo not drawn) [B1.41, prothioconazole]
- Efficacy in % found (Pyrenophora teres; application rate 20 ppm a.i.): 14% and 22%
- pest or weed control at 20 ppm (Puccinia triticina; [10]): 11%
- pest or weed control at 80 ppm (Puccinia triticina; Puccinia triticina, 192 h, application rate 80 ppm a.i., read-out: Efficacy in % found): 11%
- pest or weed control at 80 ppm (Septoria tritici; Zymoseptoria tritici, 504 h, application rate 80 ppm a.i., read-out: Efficacy in % found): 43%
- pest or weed control at 2 ppm (Alternaria solani; Alternaria solani, 72 h, Table 3c, 2 ppm, read-out: Efficacy in % found): 0%

Compound: Cc1nn(C)c(F)c1C(=O)Nc1ccccc1C(C)CC(C)C (stereo not drawn) [B2.20, penflufen]
- Efficacy in % found (Pyrenophora teres; application rate 20 ppm a.i.): 29%
- Efficacy in % found (Leptosphaeria nodorum; application rate 20 ppm, wheat, preventive, evaluated 8 days after inoculation): 0%
- Efficacy in % found (Septoria tritici; application rate 20 ppm a.i.): 29%
- Efficacy in % found (Sphaerotheca fuliginea; 0.5 ppm a.i.): 0%
- Efficacy in % found ([1]; Table 8a, 20 ppm): 14%
- Efficacy in % found ([1]; Table 8b, 20 ppm a.i.): 29%

Compound: metalaxyl [B12.9]
- Efficacy in % found (Leptosphaeria nodorum; Table 9c, 100 ppm a.i.): 33%
- Efficacy in % found (Leptosphaeria nodorum; application rate 400 ppm a.i., wheat, preventive, evaluated 8 days after inoculation): 0%
- Efficacy in % found (Puccinia triticina): 11%
- Efficacy in % found (Phytophthora infestans; Table 1a, 5 ppm a.i.): 18%
- Efficacy in % found (Septoria tritici; application rate 100 ppm a.i.): 10%

Compound: Cn1cc(C(=O)Nc2ccccc2C2CC2C2CC2)c(C(F)F)n1 (stereo not drawn) [B2.22, sedaxane]
- Efficacy in % found (Pyrenophora teres; application rate 20 ppm a.i.): 0%
- Efficacy in % found (Leptosphaeria nodorum; Table 9a, 80 ppm a.i.): 0%
- Efficacy in % found (Venturia inaequalis; Table 2d, 0.5 ppm a.i.): 53%
- Efficacy in % found (Septoria tritici; application rate 20 ppm a.i.): 14%
- Efficacy in % found ([1]; Table 8e, 80 ppm a.i.): 0%

Compound: CC1(C(=O)Nc2ccc(O)c(Cl)c2Cl)CCCCC1 [B1.16, fenhexamid]
- Efficacy in % found (Botrytis cinerea; Table 5a, 2.5 ppm a.i.): 51%
- Efficacy in % found (Botrytis cinerea; Table 5b, 2 ppm a.i.): 0%
- pest or weed control at 50 ppm (Alternaria solani; Alternaria solani, 72 h, Table 3b, 50 ppm, read-out: Efficacy in % found): 22%

Compound: CC(C)c1ccccc1CN(C(=O)c1c(C(F)F)nn(C)c1F)C1CC1 [A1, N-cyclopropyl-3-(difluoromethyl)-5-fluoro-N-(2-isopropylbenzyl)-1-methyl-1H-pyrazole-4-carboxamide]
- pest or weed control at 10 ppm (Leptosphaeria nodorum; Table 9a, 10 ppm a.i.): 29%
- pest or weed control at 40 ppm (Leptosphaeria nodorum; Table 9a): 71%
- pest or weed control at 10 ppm (Leptosphaeria nodorum; Table 9b, 10 ppm a.i.): 0%
- pest or weed control at 10 ppm (Leptosphaeria nodorum; Table 9c, 10 ppm a.i.): 50%
- pest or weed control at 62.5 ppm (Puccinia triticina; Puccinia triticina, 192 h, application rate 62.5 ppm a.i., read-out: Efficacy in % found): 57%
- pest or weed control at 0.25 ppm (Phytophthora infestans; [4]): 0%
- pest or weed control at 100 ppm (Phytophthora infestans; [4]): 0%
- pest or weed control at 0.5 ppm (Venturia inaequalis; read-out: Efficacy in % found, Table 2a, 0.5 ppm a.i.): 57%
- pest or weed control at 0.25 ppm (Venturia inaequalis; [5]): 31%
- pest or weed control at 0.25 ppm (Venturia inaequalis; read-out: Efficacy in % found, Table 2c): 0%
- pest or weed control at 0.5 ppm (Venturia inaequalis; read-out: Efficacy in % found, Table 2f, 0.5 ppm a.i.): 29%
- pest or weed control at 10 ppm (Septoria tritici; [6]): 50%
- pest or weed control at 0.25 ppm (Sphaerotheca fuliginea; Table 4a): 19%
- pest or weed control at 0.5 ppm (Sphaerotheca fuliginea; Table 4a, 0.5 ppm a.i.): 69%
- pest or weed control at 0.25 ppm (Sphaerotheca fuliginea; Table 4b): 48%
- pest or weed control at 0.25 ppm (Sphaerotheca fuliginea; Table 4c): 21%
- pest or weed control at 0.5 ppm (Alternaria solani; [7]): 38%
- pest or weed control at 0.25 ppm (Alternaria solani; [8]): 53%
- pest or weed control at 0.5 ppm (Alternaria solani; [9]): 59%
- pest or weed control at 0.5 ppm (Alternaria solani; Alternaria solani, 72 h, Table 3c, 0.5 ppm, read-out: Efficacy in % found): 16%
- pest or weed control at 10 ppm ([1]; Microdochium nivale, in Triticum aestivum, 120 h, read-out: Efficacy in % found, Table 8a, 10 ppm): 0%
- pest or weed control at 40 ppm ([1]; Microdochium nivale, in Triticum aestivum, 120 h, read-out: Efficacy in % found, Table 8a, 40 ppm): 29%

Compound: pyrimethanil [B7.7]
- Efficacy in % found (Puccinia triticina): 11%
- Efficacy in % found (Botrytis cinerea; Table 5b, 10 ppm a.i.): 24%
- Efficacy in % found (Alternaria solani; Table 3b, 25 ppm): 26%

Compound: fludioxonil [B13.3]
- Efficacy in % found (Puccinia triticina): 0%
- Efficacy in % found (Botrytis cinerea; Table 5a, 2.5 ppm a.i.): 53%
- Efficacy in % found (Botrytis cinerea; Table 5b, 0.5 ppm a.i.): 0%
- Efficacy in % found ([2]; Table 6e, 100 ppm a.i.): 0%
- Efficacy in % found ([2]; Table 6f, 400 ppm a.i.): 13%

Compound: O=C(NCCc1ncc(C(F)(F)F)cc1Cl)c1ccccc1C(F)(F)F [B2.6, fluopyram]
- Efficacy in % found (Pyrenophora teres; application rate 20 ppm a.i.): 57%
- pest or weed control at 80 ppm (Leptosphaeria nodorum; Table 9a, 80 ppm a.i.): 0%
- pest or weed control at 80 ppm (Leptosphaeria nodorum; application rate 80 ppm, wheat, preventive, evaluated 8 days after inoculation): 0%
- pest or weed control at 20 ppm (Septoria tritici; [11]): 57%
- pest or weed control at 20 ppm ([2]; Table 6d): 11%

Compound: CC(C1CC1)C(O)(Cn1cncn1)c1ccc(Cl)cc1 (stereo not drawn) [B1.5, cyproconazole]
- Efficacy in % found (Pyrenophora teres; application rate 20 ppm a.i.): 0%
- pest or weed control at 80 ppm (Leptosphaeria nodorum; Table 9a, 80 ppm a.i.): 29%
- pest or weed control at 20 ppm (Puccinia triticina; [10]): 56%
- pest or weed control at 20 ppm (Septoria tritici; [11]): 29%
- pest or weed control at 0.5 ppm (Sphaerotheca fuliginea; Table 4c, 0.5 ppm a.i.): 30%
- pest or weed control at 20 ppm ([2]; Table 6d): 78%

Compound: CO/C=C(/C(=O)OC)c1ccccc1Oc1cc(Oc2ccccc2C#N)ncn1 [B3.3, azoxystrobin]
- Efficacy in % found (Phytophthora infestans; Table 1b, 1 ppm a.i.): 50%
- Efficacy in % found (Septoria tritici; application rate 10 ppm a.i.): 29%
- Efficacy in % found (Sphaerotheca fuliginea; 2 ppm a.i.): 50%
- Efficacy in % found ([1]; Table 8e, 40 ppm a.i.): 0%
- Efficacy in % found ([2]; Table 6a, 10 ppm a.i.): 0%

Compound: CO/N=C(/C1=NOCCO1)c1ccccc1Oc1ncnc(Oc2ccccc2Cl)c1F [B3.12, fluoxastrobin]
- pest or weed control at 40 ppm (Leptosphaeria nodorum; Table 9a): 43%
- pest or weed control at 10 ppm (Leptosphaeria nodorum; [3]): 0%
- pest or weed control at 2 ppm (Phytophthora infestans; [4]): 49%
- pest or weed control at 0.5 ppm (Venturia inaequalis; read-out: Efficacy in % found, Table 2b, 0.5 ppm a.i.): 61%
- pest or weed control at 10 ppm (Septoria tritici; [6]): 14%
- pest or weed control at 10 ppm ([1]; Microdochium nivale, in Triticum aestivum, 120 h, read-out: Efficacy in % found, Table 8c, 10 ppm a.i.): 50%
- pest or weed control at 10 ppm ([1]; Microdochium nivale, in Triticum aestivum, 120 h, read-out: Efficacy in % found, Table 8e, 10 ppm a.i.): 43%

Source: patent US12642271B2, “Active compound combinations comprising a (thio)carboxamide derivative and a fungicidal compound” (Bayer CropScience Aktiengesellschaft, priority 2011, dated 2026)
